Reference: patent US20090099177A1, “PYRIDYL COMPOUNDS” (priority 2006, published 2009)
Counter-ions that a name gives are not always drawn.

Experiments:
[1] = target: T1, human prostanoid EP1 receptor (Homo sapiens, UniProt P34995); assay: Binding assay for the human prostanoid EP1 receptor (competition with [3H]-PGE2); settings: [3H]-PGE2 competition, human EP1, CHO-K1 membranes; averages of a number of experiments; read-out: pIC50 value (converted)
T1 construct: expressed in transfected cells; host or cells: CHO-K1 (membrane fraction)
T1 sequence (P34995 1-402): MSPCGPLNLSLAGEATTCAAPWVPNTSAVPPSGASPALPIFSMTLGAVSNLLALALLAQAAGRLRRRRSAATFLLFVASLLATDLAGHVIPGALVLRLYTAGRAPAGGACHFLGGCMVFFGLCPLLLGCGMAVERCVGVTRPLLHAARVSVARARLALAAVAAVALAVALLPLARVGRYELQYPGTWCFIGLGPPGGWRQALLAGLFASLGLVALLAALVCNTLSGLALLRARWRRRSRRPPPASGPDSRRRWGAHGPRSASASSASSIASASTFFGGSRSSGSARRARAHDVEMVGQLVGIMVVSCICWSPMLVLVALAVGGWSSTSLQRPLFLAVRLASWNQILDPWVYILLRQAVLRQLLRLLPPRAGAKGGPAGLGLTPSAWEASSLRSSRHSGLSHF
Protocol: Competition assay using [^3H]-PGE2.
Compound potencies are determined using a radioligand binding assay. In this assay compound potencies are determined from their ability to compete with tritiated prostaglandin E2 ([^3H]-PGE2) for binding to the human EP1 receptor.
This assay utilises Chinese hamster ovary-K1 (CHO-K1) cells into which a stable vector containing the EP1 cDNA has previously been transfected. Cells are cultured in suitable flasks containing culture medium such as DMEM:F-12 supplemented with 10% v/v foetal calf serum, 2 mM L-glutamine, 0.25 mg/ml geneticin, 10 μg/ml puromycin and 10 μM indomethacin.
Cells are detached from the culture flasks by incubation in calcium and magnesium free phosphate buffered saline containing 1 mM disodium ethylenediaminetetraacetic acid (Na2EDTA) and 10 μM indomethacin for 5 min. The cells are isolated by centrifugation at 250×g for 5mins and suspended in an ice cold buffer such as 50 mM Tris, 1 mM Na2EDTA, 140 mM NaCl, 10 μM indomethacin (pH 7.4). The cells are homogenised using a Polytron tissue disrupter (2×10 s burst at full setting), centrifuged at 48,000×g for 20mins and the pellet containing the membrane fraction is washed (optional) three times by suspension and centrifugation at 48,000×g for 20mins. The final membrane pellet is suspended in an assay buffer such as 10 mM 2-[N-morpholino]ethanesulphonic acid, 1 mM Na2EDTA, 10 mM MgCl2 (pH 6). Aliquots are frozen at −80° C. until required.
For the binding assay the cell membranes, competing compounds and [^3H]-PGE2 (3 nM final assay concentration) are incubated in a final volume of 100 μl for 30 min at 30° C. All reagents are prepared in assay buffer. Reactions are terminated by rapid vacuum filtration over GF/B filters using a Brandell cell harvester. The filters are washed with ice cold assay buffer, dried and the radioactivity retained on the filters is measured by liquid scintillation counting in Packard TopCount scintillation counter.
The data are analysed using non linear curve fitting techniques to determine the concentration of compound producing 50% inhibition of specific binding (IC50).

human EP1 receptor = target: T2, human EP1 receptor (Homo sapiens, UniProt P34995); assay: human EP1 calcium mobilisation assay; type: cell-based; settings: for Ki: human EP1, CHO-K1 cells, antagonism of PGE2, averages of a number of experiments, read-out: functional pKi value (converted)
T2 construct: expressed in transfected cells; host or cells: CHO-K1
T2 sequence (P34995 1-402): T1 sequence (P34995 1-402)
Protocol: Briefly, the antagonist properties of compounds are assessed by their ability to inhibit the mobilisation of intracellular calcium ([Ca^2+]i) in response to activation of EP1 or EP3 receptors by the natural agonist hormone prostaglandin E2 (PGE2). Increasing concentrations of antagonist reduce the amount of calcium that a given concentration of PGE2 can mobilise. The net effect is to displace the PGE2 concentration-effect curve to higher concentrations of PGE2. The amount of calcium produced is assessed using a calcium-sensitive fluorescent dye such as Fluo-4, AM and a suitable instrument such as a Fluorimetric Imaging Plate Reader (FLIPR). Increasing amounts of [Ca^2+]i produced by receptor activation increase the amount of fluorescence produced by the dye and give rise to an increasing signal. The signal may be detected using the FLIPR instrument and the data generated may be analysed with suitable curve-fitting software.
The human EP1 or EP3 calcium mobilisation assay (hereafter referred to as ‘the calcium assay’) utilises Chinese hamster ovary-K1 (CHO-K1) cells into which a stable (pCIN; BioTechniques 20 (1996): 102-110) vector containing either EP1 or EP3 cDNA has previously been transfected. Cells are cultured in suitable flasks containing culture medium such as DMEM:F-12 supplemented with 10% v/v foetal calf serum, 2 mM L-glutamine, 0.25 mg/ml geneticin, 100 μM flurbiprofen and 10 μg/ml puromycin.
For assay, cells are harvested using a proprietary reagent that dislodges cells such as Versene. Cells are re-suspended in a suitable quantity of fresh culture media for introduction into a 384-well plate. Following incubation for 24 hours at 37° C. the culture media is replaced with a medium containing Fluo-4 and the detergent pluronic acid, and a further incubation takes place. Concentrations of compounds are then added to the plate in order to construct concentration-effect curves. This may be performed on the FLIPR in order to assess the agonist properties of the compounds. Concentrations of PGE2 are then added to the plate in order to assess the antagonist properties of the compounds.
The data so generated may be analysed by means of a computerised curve-fitting routine. The concentration of compound that elicits a half-maximal inhibition of the calcium mobilisation induced by PGE2 (pIC50) may then be estimated.

| IC50 [1] [nM] | Ki (human EP1 receptor) [nM] | IC50 (human EP1 receptor; human EP1 calcium mobilisation assay, read-out: pIC50 values (converted)) [nM] | Compound |
| --- | --- | --- | --- |
| ≤ 100 | ≤ 316 | – | O=C(Nc1cccc(Cc2cc(Cl)ccc2OCc2ccccc2)n1)C1CCCCC1 [Example 4, N-[6-({5-Chloro-2-[(phenylmethyl)oxy]phenyl}methyl)-2-pyridinyl]cyclohexanecarboxamide] |
| ≤ 100 | ≤ 316 | – | CC(C)(C)CC(=O)Nc1cccc(Cc2cc(Cl)ccc2OCc2ccccc2)n1 [Example 5, N-[6-({5-Chloro-2-[(phenylmethyl)oxy]phenyl}methyl)-2-pyridinyl]-3,3-dimethylbutanamide] |
| ≤ 100 | ≤ 10000 | – | O=C(Nc1ccc(CO)cc1)c1cccc(Cc2cc(Cl)ccc2OCc2ccc(Cl)cc2F)n1 [Example 13, 6-[(5-Chloro-2-{[(4-chloro-2-fluorophenyl)methyl]oxy}phenyl)methyl]-N-[4-(hydroxymethyl)phenyl]-2-pyridinecarboxamide] |
| ≤ 100 | ≤ 316 | – | Fc1cc(Cl)ccc1COc1ccc(Cl)cc1Cc1cccc(-c2nc3ccccc3[nH]2)n1 [Example 19, 2-{6-[(5-Chloro-2-[([(4-chloro-2-fluorophenyl)methyl]oxy}phenyl)methyl]-2-pyridinyl]-1H-benzimidazole Hydrochloride] |
| ≤ 100 | ≤ 316 | – | Fc1cc(Cl)ccc1COc1ccc(Cl)cc1Cc1cccc(-c2nc3cncnc3[nH]2)n1 [Example 20, 8-{6-[(5-Chloro-2-{[(4-chloro-2-fluorophenyl)methyl]oxy}phenyl)methyl]-2-pyridinyl}-1H-purinehydrochloride] |
| ≤ 100 | ≤ 316 | – | CC(C)COc1ccc(Cl)cc1Cc1cccc(-c2nc3nccnc3[nH]2)n1 [Example 22, 2-[6-({5-Chloro-2-[(2-methylpropyl)oxy]phenyl}methyl)-2-pyridinyl]-1H-imidazo[4,5-b]pyrazine hydrochloride] |
| ≤ 100 | ≤ 10000 | – | CN(C)c1ccc2nc(-c3cccc(Cc4cc(Cl)ccc4OCc4ccccc4)n3)[nH]c2c1 [Example 27, 2-[6-({5-Chloro-2-[(phenylmethyl)oxy]phenyl}methyl)-2-pyridinyl]-N,N-dimethyl-1H-benzimidazol-5-aminehydrochloride] |
| ≤ 100 | ≤ 316 | – | Clc1ccc(OCc2ccccc2)c(Cc2cccc(-c3nc4ccc(N5CCOCC5)cc4[nH]3)n2)c1 [Example 28, 2-[6-({5-Chloro-2-[(phenylmethyl)oxy]phenyl}methyl)-2-pyridinyl]-5-(4-morpholinyl)-1H-benzimidazolehydrochloride] |
| ≤ 100 | ≤ 10000 | – | Cc1ccc2[nH]c(-c3cccc(Cc4cc(Cl)ccc4OCc4ccccc4)n3)nc2c1 [Example 29, 2-[6-({5-Chloro-2-[(phenylmethyl)oxy]phenyl}methyl)-2-pyridinyl]-5-methyl-1H-benzimidazole Hydrochloride] |
| ≤ 100 | ≤ 316 | – | Clc1ccc(OCc2ccccc2)c(Cc2cccc(-c3nc4ncccc4[nH]3)n2)c1 [Example 30, 2-[6-({5-Chloro-2-[(phenylmethyl)oxy]phenyl}methyl)-2-pyridinyl]-1H-imidazo[4,5-b]pyridinehydrochloride] |
| ≤ 100 | ≤ 316 | – | COc1ccc2[nH]c(-c3cccc(Cc4cc(Cl)ccc4OCc4ccccc4)n3)nc2c1 [Example 31, 2-[6-({5-Chloro-2-[(phenylmethyl)oxy]phenyl}methyl)-2-pyridinyl]-5-(methyloxy)-1H-benzimidazolehydrochloride] |
| ≤ 100 | ≤ 316 | – | Clc1ccc(OCc2ccccc2)c(Cc2cccc(-c3nc4ccccc4[nH]3)n2)c1 [Example 34, 2-[6-({5-Chloro-2-[(phenylmethyl)oxy]phenyl}methyl)-2-pyridinyl]-1H-benzimidazole hydrochloride] |
| ≤ 100 | ≤ 316 | – | Clc1ccc(OCc2ccccc2)c(Cc2cccc(-c3nc4cc(Cl)ccc4[nH]3)n2)c1 [Example 35, 5-Chloro-2-[6-({5-Chloro-2-[(phenylmethyl)oxy]phenyl}methyl)-2-pyridinyl]-1H-benzimidazole hydrochloride] |
| ≤ 100 | ≤ 316 | – | Fc1ccc2[nH]c(-c3cccc(Cc4cc(Cl)ccc4OCc4ccccc4)n3)nc2c1 [Example 36, 2-[6-({5-Chloro-2-[(phenylmethyl)oxy]phenyl}methyl)-2-pyridinyl]-5-fluoro-1H-benzimidazolehydrochloride] |
| ≤ 100 | ≤ 316 | – | CC(C)COc1ccc(Cl)cc1Cc1cccc(-c2nc3ccccc3[nH]2)n1 [Example 44, 2-[6-({5-Chloro-2-[(2-methylpropyl)oxy]phenyl}methyl)-2-pyridinyl]-1H-benzimidazole] |
| ≤ 100 | ≤ 316 | – | CNCc1ccc2nc(-c3cccc(Cc4cc(Cl)ccc4OCC(C)C)n3)[nH]c2c1 [Example 52, ({2-[6-({5-Chloro-2-[(2-methylpropyl)oxy]phenyl}methyl)-2-pyridinyl]-1H-benzimidazol-5-yl}methyl)methylaminehydrochloride] |
| ≤ 100 | ≤ 10000 | – | CN(CCC#N)Cc1ccc(NC(=O)c2cccc(Cc3cc(Cl)ccc3OCc3ccc(Cl)cc3F)n2)cc1 [Example 57, 6-[(5-Chloro-2-{[(4-chloro-2-fluorophenyl)methyl]oxy}phenyl)methyl]-N-(4-{[(2-cyanoethyl)(methyl)amino]methyl}phenyl)-2-pyridinecarboxamide] |
| ≤ 100 | – | > 10000 | CN(C)Cc1ccc2nc(-c3cccc(Cc4cc(Cl)ccc4OCc4ccc(Cl)cc4F)n3)[nH]c2c1 [Example 58, [(2-{6-[(5-Chloro-2-{[(4-chloro-2-fluorophenyl)methyl]oxy}phenyl)methyl]-2-pyridinyl}-1H-benzimidazol-5-yl)methyl]dimethylamine Hydrochloride] |
| ≤ 100 | ≤ 316 | – | CC(C)(C)OC(=O)Nc1cccc(Cc2cc(Cl)ccc2OCc2ccc(Cl)cc2F)n1 [Example 61, 1,1-Dimethylethyl {6-[(5-chloro-2-{[(4-chloro-2-fluorophenyl)methyl]oxy}phenyl)methyl]-2-pyridinyl}carbamate Hydrochloride] |
| ≤ 100 | ≤ 10000 | – | CC(C)COc1ccc(Cl)cc1Cc1cccc(NC(=O)c2ccc(CO)cc2)n1 [Example 62, N-[6-({5-Chloro-2-[(2-methylpropyl)oxy]phenyl}methyl)-2-pyridinyl]-4-(hydroxymethyl)benzamide] |
